Source: the NIST ThermoML archive (doi:10.1021/je020154p)
Numbers after ± are expanded uncertainties.

Conditions: Liquid

vapor or sublimation pressure (268.15 K) [kPa]	vapor or sublimation pressure (278.15 K) [kPa]	vapor or sublimation pressure (283.15 K) [kPa]	vapor or sublimation pressure (288.15 K) [kPa]	vapor or sublimation pressure (298.15 K) [kPa]	vapor or sublimation pressure (308.15 K) [kPa]	vapor or sublimation pressure (318.15 K) [kPa]	SMILES
407.9 ± 1.5	549.4 ± 1.8	636.4 ± 2	735 ± 2.2	954.8 ± 2.7	1213 ± 3.3	1530.8 ± 4.1	CCC [propane]
695.4 ± 2.1	952 ± 2.6	1102.2 ± 3	1281.2 ± 3.4	1685.6 ± 4.5	2185.2 ± 5.7	2794.8 ± 7.2	FCF [difluoromethane]
